Test results as given in PubChem BioAssay (NCI).
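A five-concentration, 48-hour dose response in 96-well plates underlies each endpoint, interpolated linearly between surrounding concentrations. Abbreviation: GI50, concentration required for 50% inhibition of growth. TGI is the concentration that stops growth completely.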

What was measured:
Experiment in all cases: NCI tumour cell line growth inhibition, 48 h
OVCAR-3 ovarian = tested on: OVCAR-3 ovarian
HCT-116 colon = tested on: HCT-116 colon
TK-10 renal = tested on: TK-10 renal
A549 NSCLC = tested on: A549 NSCLC
A498 renal = tested on: A498 renal
ACHN renal = tested on: ACHN renal
PC-3 prostate = tested on: PC-3 prostate
K-562 leukemia = tested on: K-562 leukemia
BT-549 breast = tested on: BT-549 breast
SK-MEL-2 melanoma = tested on: SK-MEL-2 melanoma
U251 CNS = tested on: U251 CNS
HS 578T breast = tested on: HS 578T breast
NCI-H23 lung = tested on: NCI-H23 lung
NCI-H460 lung = tested on: NCI-H460 lung
SR leukemia = tested on: SR leukemia
RXF 393 renal = tested on: RXF 393 renal
SNB-19 CNS = tested on: SNB-19 CNS
MALME-3M melanoma = tested on: MALME-3M melanoma
786-0 renal = tested on: 786-0 renal
MCF7 breast = tested on: MCF7 breast
SK-MEL-5 melanoma = tested on: SK-MEL-5 melanoma
SNB-75 CNS = tested on: SNB-75 CNS
MDA-MB-231 breast = tested on: MDA-MB-231 breast
UO-31 renal = tested on: UO-31 renal
SK-OV-3 ovarian = tested on: SK-OV-3 ovarian
UACC-257 melanoma = tested on: UACC-257 melanoma
T-47D breast = tested on: T-47D breast
CAKI-1 renal = tested on: CAKI-1 renal
HCC-2998 colon = tested on: HCC-2998 colon
M14 melanoma = tested on: M14 melanoma
OVCAR-5 ovarian = tested on: OVCAR-5 ovarian
OVCAR-4 ovarian = tested on: OVCAR-4 ovarian
UACC-62 melanoma = tested on: UACC-62 melanoma
SK-MEL-28 melanoma = tested on: SK-MEL-28 melanoma
HT29 colon = tested on: HT29 colon
SF-539 CNS = tested on: SF-539 CNS
MDA-MB-435 = tested on: MDA-MB-435
HOP-92 NSCLC = tested on: HOP-92 NSCLC
MOLT-4 leukemia = tested on: MOLT-4 leukemia
IGROV1 ovarian = tested on: IGROV1 ovarian
SF-295 CNS = tested on: SF-295 CNS
HCT-15 colon = tested on: HCT-15 colon
OVCAR-8 ovarian = tested on: OVCAR-8 ovarian
COLO 205 colon = tested on: COLO 205 colon
SF-268 CNS = tested on: SF-268 CNS
DU-145 prostate = tested on: DU-145 prostate
SN12C renal = tested on: SN12C renal
NCI/ADR-RES ovarian = tested on: NCI/ADR-RES ovarian
HL-60(TB) leukemia = tested on: HL-60(TB) leukemia
NCI-H226 lung = tested on: NCI-H226 lung
LOX IMVI melanoma = tested on: LOX IMVI melanoma
CCRF-CEM leukemia = tested on: CCRF-CEM leukemia
RPMI-8226 leukemia = tested on: RPMI-8226 leukemia
KM12 colon = tested on: KM12 colon
HOP-62 NSCLC = tested on: HOP-62 NSCLC
SW-620 colon = tested on: SW-620 colon
NCI-H522 lung = tested on: NCI-H522 lung

O=C1/C(=C\c2ccc(Br)cc2)CN(C(=O)c2ccccc2F)C/C1=C\c1ccc(Br)cc1
GI50 (OVCAR-3 ovarian): 1.91 µM | TGI (OVCAR-3 ovarian): 3.52 µM | GI50 (HCT-116 colon): 0.202 µM | TGI (HCT-116 colon): 0.417 µM | GI50 (TK-10 renal): 2.84 µM | TGI (TK-10 renal): 7.46 µM | GI50 (A549 NSCLC): 2.21 µM | TGI (A549 NSCLC): 6.16 µM | GI50 (A498 renal): 2.87 µM | TGI (A498 renal): 10.4 µM | GI50 (ACHN renal): 1.95 µM | TGI (ACHN renal): 3.93 µM | GI50 (PC-3 prostate): 1.73 µM | TGI (PC-3 prostate): 4.21 µM | GI50 (K-562 leukemia): 1.12 µM | TGI (K-562 leukemia): > 25.1 µM | GI50 (BT-549 breast): 1.82 µM | TGI (BT-549 breast): 3.56 µM | GI50 (SK-MEL-2 melanoma): 4.77 µM | TGI (SK-MEL-2 melanoma): 17.5 µM | GI50 (U251 CNS): 1.33 µM | TGI (U251 CNS): 2.69 µM | GI50 (HS 578T breast): 2.15 µM | TGI (HS 578T breast): 6.76 µM | GI50 (NCI-H23 lung): 2.49 µM | TGI (NCI-H23 lung): 6.39 µM | GI50 (NCI-H460 lung): 3.1 µM | TGI (NCI-H460 lung): 11.6 µM | GI50 (SR leukemia): 0.339 µM | TGI (SR leukemia): 3.2 µM | GI50 (RXF 393 renal): 1.6 µM | TGI (RXF 393 renal): 3.08 µM | GI50 (SNB-19 CNS): 2.06 µM | TGI (SNB-19 CNS): 6.65 µM | GI50 (MALME-3M melanoma): 2.61 µM | TGI (MALME-3M melanoma): 7.91 µM | GI50 (786-0 renal): 1.69 µM | TGI (786-0 renal): 3.13 µM | GI50 (MCF7 breast): 0.308 µM | TGI (MCF7 breast): 1.38 µM | GI50 (SK-MEL-5 melanoma): 1.93 µM | TGI (SK-MEL-5 melanoma): 4.04 µM | GI50 (SNB-75 CNS): 2.03 µM | TGI (SNB-75 CNS): 7.44 µM | GI50 (MDA-MB-231 breast): 2.73 µM | TGI (MDA-MB-231 breast): 7.89 µM | GI50 (UO-31 renal): 1.53 µM | TGI (UO-31 renal): 3.16 µM | GI50 (SK-OV-3 ovarian): 2.43 µM | TGI (SK-OV-3 ovarian): 5.71 µM | GI50 (UACC-257 melanoma): 2.35 µM | TGI (UACC-257 melanoma): 6.59 µM | GI50 (T-47D breast): 3.47 µM | TGI (T-47D breast): 24.1 µM | GI50 (CAKI-1 renal): 3.05 µM | TGI (CAKI-1 renal): 20 µM | GI50 (HCC-2998 colon): 1.65 µM | TGI (HCC-2998 colon): 3.16 µM | GI50 (M14 melanoma): 1.79 µM | TGI (M14 melanoma): 3.78 µM | GI50 (OVCAR-5 ovarian): 2.45 µM | TGI (OVCAR-5 ovarian): 7.06 µM | GI50 (OVCAR-4 ovarian): 1.96 µM | TGI (OVCAR-4 ovarian): 5.01 µM | GI50 (UACC-62 melanoma): 1.76 µM | TGI (UACC-62 melanoma): 4.03 µM | GI50 (SK-MEL-28 melanoma): 2.29 µM | TGI (SK-MEL-28 melanoma): 5.65 µM | GI50 (HT29 colon): 0.61 µM | TGI (HT29 colon): 2.17 µM | GI50 (SF-539 CNS): 1.75 µM | TGI (SF-539 CNS): 3.22 µM | GI50 (MDA-MB-435): 1.1 µM | TGI (MDA-MB-435): 3.33 µM | GI50 (HOP-92 NSCLC): 2.21 µM | TGI (HOP-92 NSCLC): 6.76 µM | GI50 (MOLT-4 leukemia): 2.83 µM | TGI (MOLT-4 leukemia): > 29.5 µM | GI50 (IGROV1 ovarian): 2.29 µM | TGI (IGROV1 ovarian): 4.89 µM | GI50 (SF-295 CNS): 2.18 µM | TGI (SF-295 CNS): 5.64 µM | GI50 (HCT-15 colon): 1.91 µM | TGI (HCT-15 colon): 6.65 µM | GI50 (OVCAR-8 ovarian): 2.84 µM | TGI (OVCAR-8 ovarian): 15.7 µM | GI50 (COLO 205 colon): 1.91 µM | TGI (COLO 205 colon): 3.82 µM | GI50 (SF-268 CNS): 2.81 µM | TGI (SF-268 CNS): 8.83 µM | GI50 (DU-145 prostate): 3.79 µM | TGI (DU-145 prostate): 16.8 µM | GI50 (SN12C renal): 1.98 µM | TGI (SN12C renal): 4.92 µM | GI50 (NCI/ADR-RES ovarian): 2.9 µM | TGI (NCI/ADR-RES ovarian): 17.7 µM | GI50 (HL-60(TB) leukemia): 1.74 µM | TGI (HL-60(TB) leukemia): 5.29 µM | GI50 (NCI-H226 lung): 5.07 µM | TGI (NCI-H226 lung): 13.6 µM | GI50 (LOX IMVI melanoma): 0.334 µM | TGI (LOX IMVI melanoma): 1.01 µM | GI50 (CCRF-CEM leukemia): 0.854 µM | TGI (CCRF-CEM leukemia): > 26.5 µM | GI50 (RPMI-8226 leukemia): 0.119 µM | TGI (RPMI-8226 leukemia): 0.903 µM | GI50 (KM12 colon): 0.646 µM | TGI (KM12 colon): 2.06 µM | GI50 (HOP-62 NSCLC): 1.83 µM | TGI (HOP-62 NSCLC): 3.82 µM | GI50 (SW-620 colon): 0.913 µM | TGI (SW-620 colon): 2.95 µM | GI50 (NCI-H522 lung): 2.15 µM | TGI (NCI-H522 lung): 4.94 µM
